In ChEMBL document CHEMBL1156829 (Proc Natl Acad Sci U S A, 2008):
Numbered stars: 1 amine (or outer) side, 2 acyl side, 3 side chain; on linkers, the order of the positions; unused ones are H or OH. Square brackets hold non-standard residues; d marks the D form. Peptide text beside a SMILES is read from it. * marks the point of attachment. X1 = CCC(=O)CC(O)C[C@@H](C)C[C@H](N[*:1])C(=O)[*:2]; Hexenoyl(2E,4S-Me) = CC[C@H](C)/C=C/C(=O)*; Leu(3R-OH) = CC(C)[C@@H](O)[C@H](N)C(=O)O; NH((S)CH(Me)CH2NMe2) = C[C@@H](CN(C)C)N*; Pro(4S-Me) = C[C@@H]1CN[C@H](C(=O)O)C1; Aib = CC(C)(N)C(=O)O; βAla = NCCC(=O)O

What was measured:
[1] = system: Plasmodium falciparum; assay: NOVARTIS: Inhibition of Plasmodium falciparum 3D7 (drug-susceptible) proliferation in erythrocyte-based infection assay; type: functional, organism-based; conditions: Plasmodium falciparum, 3D7
[2] = NOVARTIS: Cytotoxicity against human hepatocellular carcinoma cell line (Huh7); type: toxicity, cell-based, Huh-7; conditions: Huh7 cells (hepatocellular carcinoma cell line)
[3] = system: Plasmodium falciparum; assay: NOVARTIS: Inhibition of Plasmodium falciparum W2 (drug-resistant) proliferation in erythrocyte-based infection assay; type: functional, organism-based; conditions: Plasmodium falciparum, W2; read-out: EC50

| SMILES | EC50 [1] [nM] | CC50 [2] [nM] | EC50 [3] [nM] |
| --- | --- | --- | --- |
| CCOC(=O)c1cc(-c2ccc(Cl)cc2Cl)[nH]c1N1CCN(c2ccc(OC)cc2)CC1 | 1370 | > 13400 | > 1730 |
| COc1ccc([N+](=O)[O-])cc1-c1ccc(/C=C(\C#N)c2nn(CCO)c(N)c2C#N)o1 | 880 | > 10000 | 607 |
| OCC[n+]1c2ccccc2nc2ccc(N3CCOCC3)cc21.[O-][Cl+3]([O-])([O-])[O-] | 243 | 35000 | 56.4 |
| COC(=O)C(Nc1ccc(Cl)c(Cl)c1)(c1cc(C)c(O)c(C)c1)C(F)(F)F (stereo not drawn) | > 1390 | > 10000 | > 789 |
| CC(C)(C)C1CCc2[nH]c3ccccc3c(=O)c2C1 (stereo not drawn) | 852 | > 100000 | 976 |
| O=C(CSc1cn(CCNC(=O)c2ccc(F)cc2)c2ccccc12)Nc1ccccc1F | > 12500 | > 98900 | > 8090 |
| CCCCCOC(=O)C1=C(C)Nc2ncnn2C1c1cccc([N+](=O)[O-])c1 (stereo not drawn) | > 988 | > 10000 | > 1250 |
| CCCCCCc1cc(O)c2c(c1)OC(C)(C)C1=C2CCN(C)C1 | 48.4 | 20600 | 31.3 |
| Cc1cc(N2CCN(C)CC2)nc2ccc(NC(=O)Nc3ccccc3Cl)cc12 | 3100 | > 100000 | 2060 |
| Cc1nc2ccccc2c(=O)n1NC(=O)c1cccc([N+](=O)[O-])c1 | 141 | > 100000 | 1610 |
| Oc1cccc2ccc[n+](CC(O)Cn3c4ccccc4c4ccccc43)c12 (stereo not drawn) | 199 | 49200 | 651 |
| CCc1c(C)c(C#N)c2nc3ccccc3n2c1Nc1ccc(C)c(Cl)c1 | 1090 | > 100000 | 233 |
| CCOc1ccc2nc(C)cc(Nc3ccc(Br)cc3)c2c1 | 114 | 7290 | 182 |
| CCNc1nc(OC)nc(Oc2ccc(=O)n(-c3ccccc3)n2)n1 | 548 | > 100000 | 584 |
| COc1ccc(C=NNc2cc(C)nc3ccc(OC)cc23)c(OC)c1 | 33.1 | 6690 | 43.5 |
| Cc1cc(NCCCN(C)C)c2ccccc2n1 | 716 | 53200 | 1380 |
| CCN1CCN(CCCNC(=S)Nc2ccc3nc(N4CCCC4)cc(C)c3c2)CC1 | 256 | 44200 | 773 |
| CCOC(=O)C1=C(c2ccccc2)N=c2sc(=Cc3cccnc3)c(=O)n2C1c1c(OC)ccc2ccccc12 (stereo not drawn) | 4150 | > 100000 | 1550 |
| COc1ccccc1C=CC1=NC(=Cc2ccc(SC)cc2)C(=O)O1 | 2040 | > 100000 | 2510 |
| CCc1ccc(NC(=O)c2sc3nc4c(c(-c5ccco5)c3c2N)CCCC4)cc1 | 1820 | > 100000 | 1070 |
| CCCOC(=O)C1=C(C)NC2=C(C(=O)CC(c3ccc(OC)c(OC)c3)C2)C1c1ccccc1F (stereo not drawn) | 6.71 | > 100000 | 5.41 |
| Cc1cnc(C)c(-c2ccc(O)c(CNCC3(N4CCCCC4)CCCCC3)c2)n1 | 326 | > 7780 | 39.8 |

| SMILES | EC50 [1] [nM] | CC50 [2] [nM] | EC50 [3] [nM] |
| --- | --- | --- | --- |
| CCc1nc2nc(C)cc(Nc3ccc(F)c(Cl)c3)n2n1 | 543 | > 100000 | 547 |
| CCOC(=O)C1=C(N)N(c2cccc([N+](=O)[O-])c2)C2=C(C(=O)CC(C)(C)C2)C1c1ccc(Br)cc1 (stereo not drawn) | 1260 | > 100000 | 150 |
| CCCn1c(=N)c(C(=O)NC2CCCCC2)cc2c(=O)n3cccc(C)c3nc21 | 460 | > 100000 | 1290 |
| CCc1c2ccc(C)n2cc[n+]1CC | 610 | > 100000 | 749 |
| CCCCCN(C(=O)Nc1ccccc1OC)C(CC)c1nc2ccccc2c(=O)n1-c1ccccc1OC (stereo not drawn) | 780 | > 10000 | 835 |
| O=C(Nc1ccccc1[N+](=O)[O-])C1CC1(c1ccccc1)c1ccccc1 (stereo not drawn) | > 12500 | > 100000 | 647 |
| Cn1c(NN=Cc2ccccc2)cc(=O)n(C)c1=O | > 1250 | > 10000 | 325 |
| CCN(CC)CCCNC(=S)N(CCN(C)C)Cc1cc2cc(C)cc(C)c2[nH]c1=O | 2420 | > 100000 | 2000 |
| CCN(CC)c1ccc(C=NNC(=O)c2ccc(Nc3nc(-c4ccccc4)cs3)cc2)c(O)c1 | 151 | 20100 | 54.8 |
| COc1cc(CNCCCn2ccnc2)ccc1OCc1ccccc1 | > 1250 | > 10000 | > 1170 |
| Cc1n(N)c2ccccc2[n+]1CC(=O)c1ccccc1 | 2900 | > 100000 | 1750 |
| Oc1ccc(C2Nc3ccc4ccccc4c3C3C=CCC32)cc1 (stereo not drawn) | 812 | > 100000 | 292 |
| COc1cc(OC)c(NC(=O)C2c3ccccc3C(=O)N(C)C2c2ccc(OC)c(OC)c2)cc1Cl (stereo not drawn) | 983 | > 100000 | 328 |
| CCC(=O)OC(C(C)C(=O)O)C(C)C1OC2(CCC(C)(C3CCC(C)(C4OC(C5OC(O)(CO)C(C)CC5C)CC4C)O3)O2)CC(O)C1C (stereo not drawn) | 379 | > 6250 | 387 |
| CCOP(=O)(OCC)C(O)c1ccc(C)cc1 (stereo not drawn) | > 1250 | > 10000 | > 1180 |
| Oc1ccc(-c2ccc(F)cc2)cc1CNCCCn1ccnc1 | 1060 | > 10000 | 1430 |
| COc1ccc(-c2cc(-c3ccccc3)nc(SCC(=O)N3c4ccccc4Sc4ccc(Cl)cc43)c2C#N)cc1 | > 427 | > 10000 | > 1530 |
| COc1cc(NC(C)=C2C(=O)c3ccccc3C2=O)c(OC)cc1Cl | 2400 | > 100000 | 1040 |
| COc1cc(OC)c(N(C)C(=O)c2cn(C3CCCC3)c(=O)c3c2c2ccccc2n3C)cc1Cl | 97.7 | 47200 | 55.3 |
| CCOC(=O)c1ccc(OCC2c3cc(OC)c(OC)cc3CCN2C(=O)Nc2ccc(Cl)cc2)cc1 (stereo not drawn) | 1970 | > 100000 | 292 |
| OC1(c2cccc3ccccc23)CCN(Cc2ccccc2)C1 (stereo not drawn) | 457 | 23100 | 148 |
| CCC(=O)CC(O)C[C@@H](C)C[C@H](NC(=O)[C@@H]1C[C@H](C)CN1C(=O)/C=C/[C@@H](C)CC)C(=O)N[C@H](C(=O)NC(C)(C)C(=O)N[C@@H](CC(C)C)C(=O)N[C@@H](CC(C)C)C(=O)NC(C)(C)C(=O)NC(C)(C)C(=O)NCCC(=O)N[C@@H](C)CN(C)C)[C@H](O)C(C)C (stereo partly drawn) ({Hexenoyl(2E,4S-Me)}-[Pro(4S-Me)][X1][Leu(3R-OH)][Aib]LL[Aib][Aib][βAla]-{NH((S)CH(Me)CH2NMe2)}) | 194 | 6470 | 651 |

| SMILES | EC50 [1] [nM] | CC50 [2] [nM] | EC50 [3] [nM] |
| --- | --- | --- | --- |
| OC(COc1ccccc1CNCCN1CCCC1)CN1CCc2ccccc2C1 (stereo not drawn) | 2200 | 63400 | 1660 |
| CCCCCCN(C(=O)Nc1ccccc1OC)C(C)c1nc2ccccc2c(=O)n1-c1ccccc1OCC (stereo not drawn) | 852 | > 10000 | 753 |
| CCN1CCN(c2cc(C)c3cc(NC(=O)C=Cc4cccc(Cl)c4)ccc3n2)CC1 | 824 | 61400 | 1260 |
| Clc1ccc(-c2cn3c([n+]2-c2ccccc2)CCC3)cc1 | 257 | > 100000 | 3510 |
| COc1ccc(CCNC(=S)Nc2ccccc2C)cc1OC | 1100 | > 100000 | 698 |
| Cc1cc(Br)cc(Cl)c1OC(=O)c1ccno1 | > 12500 | > 100000 | 3000 |
| CCCC(=O)N(C/C=C/c1ccccc1OC)CCN1CCN(C(=O)Nc2cccc(C)c2)CC1 | > 1250 | > 10000 | 148 |
| Cn1c(COc2ccc(Cl)cc2Cl)[n+](C)c2ccccc21 | 261 | > 10000 | 773 |
| COc1cccc(NC(=O)Cn2c(C)c(C#N)c3ccccc32)c1 | 79.6 | > 100000 | 104 |
| O=C(NNc1cccc(F)n1)C(F)(F)F | 670 | > 10000 | 340 |
| O=C(c1c2c(nc3ccccc13)CCC2)N1CCc2ccccc21 | 1940 | > 11700 | < 36.7 |
| O=C(Cn1c2ccccc2c(=O)c2cc([N+](=O)[O-])ccc21)Nc1ccc(F)c(Cl)c1 | > 12500 | > 100000 | 5670 |
| COc1ccc(-c2nnc(NC(=O)CCN(CCc3ccc(OC)c(OC)c3)C(=O)c3cccc4ccccc34)s2)cc1 | 934 | > 13600 | > 1200 |
| CC(C)CCNC(=O)C1CSC(c2ccc(F)cc2)N1C(=O)c1ccc(Cl)cc1Cl (stereo not drawn) | > 12500 | > 100000 | 8180 |
| CCCCCCCCCCCCn1ccc(=N)cc1 | 321 | 4990 | 188 |
| CCc1ccc2[nH]c(=O)c(CN(CCO)C(=S)Nc3ccccc3CC)cc2c1 | 2620 | 48000 | 1910 |
| CCOc1ccc2c(c1)c1nnc(-c3ccc4c(c3)OCO4)c-1cn2Cc1ccc(Cl)cc1 | 8390 | 14600 | 4980 |
| CC(CCc1ccccc1)NCC(O)c1cccc([N+](=O)[O-])c1 (stereo not drawn) | 205 | 42500 | 14.5 |
| COc1cc(NC(C)CCCN(Cc2ccc(OC)c(OC)c2)C(=O)c2ccccc2)c2ncccc2c1 (stereo not drawn) | 529 | > 10000 | 103 |
| FC(F)(F)COc1nc(N2CCCCC2)nc(N(c2ccccc2)c2ccccc2)n1 | > 5970 | > 100000 | 2790 |
| COc1cc(NC(C)CCCN(Cc2ccc(F)cc2)C(=O)C(C)(C)CCl)c2ncccc2c1 (stereo not drawn) | 469 | > 1830 | < 3.43 |
| Cc1cccc2cc(C(c3nnnn3C3CCCC3)N3CCCC4(CCCCC4)C3)c(=O)[nH]c12 (stereo not drawn) | > 1250 | > 10000 | > 209 |
